From patent US9561197B2 (Horizon Therapeutics, LLC, priority 2012, dated 2017)
Like-named read-outs stand apart in the source and are kept apart here.

Key:
[1] = Patient 1
[2] = not given; remark: listed apart in the source
[3] = Patient 2

Row | PAGN (human, in vivo) [µg/L] | complaints (human, in vivo) | unusual symptoms ([2]; human, in vivo) | unusual symptoms such as dizziness, headache, or nausea ([2]; human, in vivo) | Molecule | ammonia ([1]; HPN-100 9 mL/day, after overnight fasting) [µmol/L] | ammonia ([1]; HPN-100 9 mL/day, midday several hours after lunch) [µmol/L] | ammonia ([1]; HPN-100 12 mL/day for one week, after overnight fasting) [µmol/L] | ammonia ([1]; HPN-100 12 mL/day for one week, midday) [µmol/L] | symptoms (headache, lack of appetite) ([1]; after one week at HPN-100 12 mL/day) | ammonia (Patient 3, HPN-100 18 mL/day for the past month) [µmol/L] | episodes of HE ([2]; Patient 7, HPN-100 6 mL BID, during 3 months) | ammonia ([2]; Patient 7, HPN-100 6 mL BID, follow up after 3 months (blood ammonia 85 μmol/L before therapy)) [µmol/L] | ammonia ([3]; NaPBA 450 mg/Kg/day for one week) [µmol/L] | ammonia levels ([3]; NaPBA 600 mg/kg per day) [µmol/L]
1 | 259 | did not have any complaints | did not report any unusual symptoms | had not experienced any unusual symptoms | O=C(CCCc1ccccc1)OCC(COC(=O)CCCc1ccccc1)OC(=O)CCCc1ccccc1 [HPN-100, glyceryl tri-[4-phenylbutyrate]] | 55 | 117 | 9 | 35 | all symptoms resolved | 22 | no episodes of HE | 30 |  | 
2 |  |  |  |  | sodium phenylbutyrate [NaPBA] |  |  |  |  |  |  |  |  | 20 | < 9
